Assay results reported in patent publication US10500166B2, “Methods for the treatment of erectile dysfunction using fispemifene” (QUATRX PHARMACEUTICALS, priority 2007, dated 2019).

How the values were obtained:
Type in all cases: in vivo, human
[1] = test system: FSH; assay: Phase I repeated dose study 101-50202: serum FSH
Description: (§1) Fispemifene has been studied in two phase I studies in humans—in a single dose and a repeated dose study. Effect of fispemifene on hormone levels was one main focus of the repeated dose study. The phase I repeated dose study (number 101-50202) was a randomized, double-blind, placebo-controlled 28-day dose-escalation study performed in 31 healthy, elderly men, aged 50-68 years. The main objective of the study was to investigate the tolerability, safety and pharmacokinetics of fispemifene after repeated oral doses, but the study focused also on the effects of fispemifene on serum free and total testosterone, estradiol, and other relevant hormones. The fispemifene doses 10, 30, 100 and 300 mg per day and placebo were administered once every morning as capsules containing 10 mg or 100 mg of fispemifene, or placebo.
(§2) The variables for safety and tolerability were adverse events, vital signs, 12-lead ECG, clinical laboratory evaluations, physical examination, ultrasound examinations (mammary glands) and inhibin B. For pharmacokinetics, the concentrations of fispemifene and its metabolite(s) were to be evaluated. For pharmacodynamics, serum concentrations of FSH, LH, estradiol, testosterone, SHBG, prolactin, aldosterone, cortisol and TSH before and during treatment were measured and compared with the concentrations in the placebo-group.

[2] = test system: FSH (follicle stimulating hormone); assay: Example 3 study in hypogonadal men: serum FSH (ITT); settings: for FSH % Change from Baseline to Week 2, Max / FSH % Change from Baseline to Week 2, Mean ± SD / FSH % Change from Baseline to Week 2, Median / FSH % Change from Baseline to Week 2, Min / FSH % Change from Baseline to Week 4, Max / FSH % Change from Baseline to Week 4, Mean ± SD / FSH % Change from Baseline to Week 4, Median / FSH % Change from Baseline to Week 4, Min / FSH % Change from Baseline to Week 6, Max / FSH % Change from Baseline to Week 6, Mean ± SD / FSH % Change from Baseline to Week 6, Median / FSH % Change from Baseline to Week 6, Min: (Week minus Baseline) divided by Baseline, LOCF; for FSH % Change from Baseline to Week 2, Max / FSH % Change from Baseline to Week 2, Mean ± SD / FSH % Change from Baseline to Week 2, Median / FSH % Change from Baseline to Week 2, Min / FSH % Change from Baseline to Week 4, Max / FSH % Change from Baseline to Week 4, Mean ± SD / FSH % Change from Baseline to Week 4, Median / FSH % Change from Baseline to Week 4, Min / FSH % Change from Baseline to Week 6, Max / FSH % Change from Baseline to Week 6, Mean ± SD / FSH % Change from Baseline to Week 6, Median / FSH % Change from Baseline to Week 6, Min / FSH Actual Value at Baseline (Visit 2), Max / FSH Actual Value at Baseline (Visit 2), Mean ± SD / FSH Actual Value at Baseline (Visit 2), Median / FSH Actual Value at Baseline (Visit 2), Min: ITT
Experimental: A randomized, double-blind, placebo controlled, parallel-group study of once-daily doses of fispemifene (100, 200, and 300 mg/day) given for 4 weeks was conducted in a population of hypogonadal men. Subjects were required to meet all of the following inclusion criteria at screening and prior to randomization to be eligible for the study:
There were 77 subjects total. The number of subjects randomized to the 100 mg fispemifene, 200 mg fispemifene, 300 mg fispemifene, and placebo arms were 21, 21, 19, and 16, respectively.
Subjects were randomly assigned to one of four treatment groups in a 1:1:1:1 ratio: • Treatment A (100 mg): fispemifene 100 mg+placebo+placebo; • Treatment B (200 mg): fispemifene 100 mg+fispemifene 100 mg+placebo; • Treatment C (300 mg): fispemifene 100 mg+fispemifene 100 mg+fispemifene 100 mg; and • Treatment D (Placebo): placebo+placebo+placebo.
Subjects took one dose (three capsules) of study medication once a day at home for 4 weeks. Capsules were to be taken in the morning immediately after breakfast, with the exception of the morning of the Week 4 visit. Capsules were not to be taken on the morning of the Week 4 visit because trough plasma levels of fispemifene were determined by a blood sample taken at this visit. Each subject was randomly assigned to treatment with one of the 3 different dose regimens of fispemifene or placebo vehicle. Each subject received a 4 week supply of study drug.
Blood samples were taken from the subjects within 1 week prior to dosing with study drug to establish baseline values; after 2 and 4 weeks of randomization; and 2 weeks after the last dose of study drug. Serum was prepared from those samples and used to determine the mean % change from baseline in total testosterone, free testosterone, SHBG (sex hormone-binding globulin), DHT (dihydrotestosterone), E2 (estradiol), LH (luteinizing hormone), FSH (follicle stimulating hormone), and inhibin B.
3. Percent change from baseline in SHBG, DHT, E2, LH, FSH, inhibin B, and testosterone/E2 ratio at Weeks 2, 4, and 6.

[3] = test system: SHBG; assay: Phase I repeated dose study 101-50202: serum SHBG;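 for Serum SHBG, Mean: SHBG concentrations in nmol/L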
Description: as §1, §2

[4] = during the 28 days of treatment

OCCOCCOc1ccc(/C(=C(/CCCl)c2ccccc2)c2ccccc2)cc1 [Fispemifene, (Z)-2-{2-[4-(4-Chloro-1,2-diphenylbut-1-enyl)phenoxy]ethoxy}ethanol]
Serum FSH, Mean ([1]; 10 mg/day, Baseline): 5.42 U/L
Serum FSH, Mean ([1]; 10 mg/day, Day 8): 5.87 U/L
Serum FSH, Mean ([1]; 10 mg/day, Day 15): 5.20 U/L
Serum FSH, Mean ([1]; 10 mg/day, Day 22): 6.60 U/L
Serum FSH, Mean ([1]; 10 mg/day, Day 28): 5.66 U/L
Serum FSH, Mean ([1]; 30 mg/day, Baseline): 9.14 U/L
Serum FSH, Mean ([1]; 30 mg/day, Day 8): 9.78 U/L
Serum FSH, Mean ([1]; 30 mg/day, Day 15): 10.14 U/L
Serum FSH, Mean ([1]; 30 mg/day, Day 22): 10.18 U/L
Serum FSH, Mean ([1]; 30 mg/day, Day 28): 8.42 U/L
Serum FSH, Mean ([1]; 100 mg/day, Baseline): 6.30 U/L
Serum FSH, Mean ([1]; 100 mg/day, Day 8): 7.68 U/L
Serum FSH, Mean ([1]; 100 mg/day, Day 15): 8.10 U/L
Serum FSH, Mean ([1]; 100 mg/day, Day 22): 8.20 U/L
Serum FSH, Mean ([1]; 100 mg/day, Day 28): 7.73 U/L
Serum FSH, Mean ([1]; 300 mg/day, Baseline): 6.80 U/L
Serum FSH, Mean ([1]; 300 mg/day, Day 8): 8.80 U/L
Serum FSH, Mean ([1]; 300 mg/day, Day 15): 8.73 U/L
Serum FSH, Mean ([1]; 300 mg/day, Day 22): 8.85 U/L
Serum FSH, Mean ([1]; 300 mg/day, Day 28): 7.57 U/L
effect on serum concentration of FSH [1, 4]: increased
FSH % Change from Baseline to Week 2, Max ([2]; 100 mg): 0.76
FSH % Change from Baseline to Week 2, Mean ± SD ([2]; 100 mg): 0.29 ± 0.222
FSH % Change from Baseline to Week 2, Median ([2]; 100 mg): 0.27
FSH % Change from Baseline to Week 2, Min ([2]; 100 mg): −0.13
FSH % Change from Baseline to Week 4, Max ([2]; 100 mg): 1.12
FSH % Change from Baseline to Week 4, Mean ± SD ([2]; 100 mg): 0.28 ± 0.296
FSH % Change from Baseline to Week 4, Median ([2]; 100 mg): 0.24
FSH % Change from Baseline to Week 4, Min ([2]; 100 mg): −0.09
FSH % Change from Baseline to Week 6, Max ([2]; 100 mg): 0.610
FSH % Change from Baseline to Week 6, Mean ± SD ([2]; 100 mg): 0.043 ± 0.2302
FSH % Change from Baseline to Week 6, Median ([2]; 100 mg): 0.000
FSH % Change from Baseline to Week 6, Min ([2]; 100 mg): −0.345
FSH Actual Value at Baseline (Visit 2), Max ([2]; 100 mg): 14.90 IU/L
FSH Actual Value at Baseline (Visit 2), Mean ± SD ([2]; 100 mg): 649 ± 3.738 IU/L
FSH Actual Value at Baseline (Visit 2), Median ([2]; 100 mg): 5.00 IU/L
FSH % Change from Baseline to Week 2, Max ([2]; 200 mg): 0.60
FSH % Change from Baseline to Week 2, Mean ± SD ([2]; 200 mg): 0.33 ± 0.147
FSH % Change from Baseline to Week 2, Median ([2]; 200 mg): 0.28
FSH % Change from Baseline to Week 2, Min ([2]; 200 mg): 0.03
FSH % Change from Baseline to Week 4, Max ([2]; 200 mg): 0.58
FSH % Change from Baseline to Week 4, Mean ± SD ([2]; 200 mg): 0.32 ± 0.157
FSH % Change from Baseline to Week 4, Median ([2]; 200 mg): 0.33
FSH % Change from Baseline to Week 4, Min ([2]; 200 mg): 0.02
FSH % Change from Baseline to Week 6, Max ([2]; 200 mg): 0.442
FSH % Change from Baseline to Week 6, Mean ± SD ([2]; 200 mg): 0.050 ± 0.1657
FSH % Change from Baseline to Week 6, Median ([2]; 200 mg): 0.022
FSH % Change from Baseline to Week 6, Min ([2]; 200 mg): −0.167
FSH Actual Value at Baseline (Visit 2), Max ([2]; 200 mg): 14.20 IU/L
FSH Actual Value at Baseline (Visit 2), Mean ± SD ([2]; 200 mg): 5.91 ± 3.054 IU/L
FSH Actual Value at Baseline (Visit 2), Median ([2]; 200 mg): 5.20 IU/L
FSH Actual Value at Baseline (Visit 2), Min ([2]; 200 mg): 2.40 IU/L
FSH % Change from Baseline to Week 2, Max ([2]; 300 mg): 0.78
FSH % Change from Baseline to Week 2, Mean ± SD ([2]; 300 mg): 0.36 ± 0.233
FSH % Change from Baseline to Week 2, Median ([2]; 300 mg): 0.31
FSH % Change from Baseline to Week 2, Min ([2]; 300 mg): −0.21
FSH % Change from Baseline to Week 4, Max ([2]; 300 mg): 0.60
FSH % Change from Baseline to Week 4, Mean ± SD ([2]; 300 mg): 0.29 ± 0.206
FSH % Change from Baseline to Week 4, Median ([2]; 300 mg): 0.28
FSH % Change from Baseline to Week 4, Min ([2]; 300 mg): −0.24
FSH % Change from Baseline to Week 6, Max ([2]; 300 mg): 0.395
FSH % Change from Baseline to Week 6, Mean ± SD ([2]; 300 mg): −0.010 ± 0.1786
FSH % Change from Baseline to Week 6, Median ([2]; 300 mg): −0.043
FSH % Change from Baseline to Week 6, Min ([2]; 300 mg): −0.255
FSH Actual Value at Baseline (Visit 2), Max ([2]; 300 mg): 12.30 IU/L
FSH Actual Value at Baseline (Visit 2), Mean ± SD ([2]; 300 mg): 5.08 ± 2.931 IU/L
FSH Actual Value at Baseline (Visit 2), Median ([2]; 300 mg): 4.10 IU/L
FSH Actual Value at Baseline (Visit 2), Min ([2]; 300 mg): 1.80 IU/L
effect on serum FSH levels ([2]; hypogonadal men, 100-300 mg/day for 4 weeks): increased
Serum SHBG, Mean ([3]; 10 mg/day, Baseline): 47.7 nmol/L
Serum SHBG, Mean ([3]; 10 mg/day, Day 8): 46.3 nmol/L
Serum SHBG, Mean ([3]; 10 mg/day, Day 15): 48.2 nmol/L
Serum SHBG, Mean ([3]; 10 mg/day, Day 22): 50.2 nmol/L
Serum SHBG, Mean ([3]; 10 mg/day, Day 28): 45.2 nmol/L
Serum SHBG, Mean ([3]; 30 mg/day, Baseline): 34.2 nmol/L
Serum SHBG, Mean ([3]; 30 mg/day, Day 8): 34.2 nmol/L
Serum SHBG, Mean ([3]; 30 mg/day, Day 15): 37.4 nmol/L
Serum SHBG, Mean ([3]; 30 mg/day, Day 22): 37.2 nmol/L
Serum SHBG, Mean ([3]; 30 mg/day, Day 28): 36.6 nmol/L
Serum SHBG, Mean ([3]; 100 mg/day, Baseline): 41.7 nmol/L
Serum SHBG, Mean ([3]; 100 mg/day, Day 8): 47.7 nmol/L
Serum SHBG, Mean ([3]; 100 mg/day, Day 15): 52.0 nmol/L
Serum SHBG, Mean ([3]; 100 mg/day, Day 22): 55.7 nmol/L
Serum SHBG, Mean ([3]; 100 mg/day, Day 28): 50.8 nmol/L
Serum SHBG, Mean ([3]; 300 mg/day, Baseline): 50.7 nmol/L
Serum SHBG, Mean ([3]; 300 mg/day, Day 8): 64.2 nmol/L
Serum SHBG, Mean ([3]; 300 mg/day, Day 15): 66.2 nmol/L
Serum SHBG, Mean ([3]; 300 mg/day, Day 22): 65.2 nmol/L
Serum SHBG, Mean ([3]; 300 mg/day, Day 28): 58.3 nmol/L
effect on serum concentration of SHBG [3, 4]: increased
